What was measured:
Format in all cases: biochemical
Purified bovine PKGα = target: T1, Purified bovine PKGα (Bos taurus, UniProt P00516); experiment: PKG kinase assay (Kinase-Glo ATP consumption); settings: for IC50: 1 μM ATP, read-out: Kinase Inhibiting Activity (IC50) PKG; for Realative Inhibitory Activity PKG: relative ratio to ROCKII (=1.0), based on IC50 values
T1 construct: Purified bovine PKGα (Promega); purchased Promega
T1 sequence (P00516 1-671): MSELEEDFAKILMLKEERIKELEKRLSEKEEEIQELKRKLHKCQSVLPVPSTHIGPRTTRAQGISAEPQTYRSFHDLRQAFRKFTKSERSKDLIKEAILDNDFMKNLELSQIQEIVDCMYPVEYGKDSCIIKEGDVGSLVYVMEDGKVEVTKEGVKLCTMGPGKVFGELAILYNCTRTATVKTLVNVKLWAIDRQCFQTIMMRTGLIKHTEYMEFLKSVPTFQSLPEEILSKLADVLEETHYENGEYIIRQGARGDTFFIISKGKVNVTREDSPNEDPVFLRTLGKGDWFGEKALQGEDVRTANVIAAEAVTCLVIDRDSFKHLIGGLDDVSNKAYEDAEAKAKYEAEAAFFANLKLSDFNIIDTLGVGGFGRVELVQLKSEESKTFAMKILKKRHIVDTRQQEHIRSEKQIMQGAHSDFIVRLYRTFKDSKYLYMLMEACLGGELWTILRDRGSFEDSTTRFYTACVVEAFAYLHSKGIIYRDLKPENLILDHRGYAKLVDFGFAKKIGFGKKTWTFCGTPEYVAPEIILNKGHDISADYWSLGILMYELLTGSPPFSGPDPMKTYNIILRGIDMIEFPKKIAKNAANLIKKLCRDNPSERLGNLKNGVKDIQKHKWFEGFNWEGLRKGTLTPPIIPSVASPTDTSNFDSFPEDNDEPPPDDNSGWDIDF
Description: Purified bovine PKGα (Promega) was used to evaluate its activity to phosphorylate a substrate peptide (RKISASEF, Promega).
(§1) In a system of the total volume of 50 μL, the reaction of the above-mentioned enzyme (64 ng) was carried out at room temperature for 80 minutes in the presence of 40 mM of Tris-HCl (pH 7.5), 20 mM of magnesium chloride, 10 μM of cGMP (Sigma), 100 μM of the above peptide, and 1 μM of ATP. After the kinase reaction, the luminescence intensity corresponding to the amount of ATP in the reaction system was measured using a luciferase reagent (Kinase-Glo Luminescent Kinase Assay kit, Promega) with a chemiluminescence measurement apparatus (MicroLumat, Berthold Technologies). The amount of ATP consumed by the phosphorylation reaction was calculated by comparison with the luminescence intensity in the system when the kinase reaction was not carried out.
(§2) With this system, the kinase reaction was carried out in the presence of a compound at various concentrations, and the IC50 value of the compound was determined based on the resulting compound concentration-response curve for ATP consumption.
(§3) The ROCKII-inhibiting activity of a compound to be tested was defined as 1.0, and the inhibitory activities of the compound against kinases (PKA, PKG, CaMKII, and AuroraA) other than ROCKII were calculated as relative ratios to the ROCKII-inhibiting activity, based on the IC50 values calculated using the above-described evaluation system.

[1] = target: T2, Recombinant human AuroraA (Homo sapiens, UniProt O14965); experiment: AuroraA kinase assay (Kinase-Glo ATP consumption); parameters: key to Realative Inhibitory Activity AuroraA: ratio relative to ROCKII-inhibiting activity defined as 1.0 (from IC50s); settings: for IC50: 1 μM ATP, read-out: Kinase Inhibiting Activity (IC50) AuroraA; for Realative Inhibitory Activity AuroraA: relative ratio to ROCKII (=1.0), based on IC50 values
T2 construct: purchased Upstate
T2 sequence (O14965 1-403): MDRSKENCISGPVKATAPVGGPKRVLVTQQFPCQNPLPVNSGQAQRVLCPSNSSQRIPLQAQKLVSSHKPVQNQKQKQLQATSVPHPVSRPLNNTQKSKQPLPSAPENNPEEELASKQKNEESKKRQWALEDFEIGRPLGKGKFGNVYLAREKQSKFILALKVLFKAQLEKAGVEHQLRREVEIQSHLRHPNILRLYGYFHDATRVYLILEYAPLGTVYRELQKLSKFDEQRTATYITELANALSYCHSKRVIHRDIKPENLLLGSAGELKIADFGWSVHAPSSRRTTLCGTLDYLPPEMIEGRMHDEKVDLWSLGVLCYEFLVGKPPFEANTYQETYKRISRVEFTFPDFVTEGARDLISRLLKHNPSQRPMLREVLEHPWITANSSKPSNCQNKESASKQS
Description: Recombinant human AuroraA (Upstate) was used to evaluate its activity to phosphorylate a substrate peptide (LRRASLG, Promega) was evaluated.
as §1, with “(40” for “(64”, “MOPS-NaOH” for “Tris-HCl”, “200” for “10 μM of cGMP (Sigma), 100”
as §2, §3

Recombinant mouse MKK4 = target: T3, Recombinant mouse MKK4 (Mus musculus, UniProt P47809); experiment: MKK4 kinase assay (Kinase-Glo ATP consumption); settings: 1 μM ATP; read-out: Kinase Inhibiting Activity (IC50) MKK4
T3 construct: from 34th to 397th amino acids; purchased Upstate
T3 sequence (P47809 34-397): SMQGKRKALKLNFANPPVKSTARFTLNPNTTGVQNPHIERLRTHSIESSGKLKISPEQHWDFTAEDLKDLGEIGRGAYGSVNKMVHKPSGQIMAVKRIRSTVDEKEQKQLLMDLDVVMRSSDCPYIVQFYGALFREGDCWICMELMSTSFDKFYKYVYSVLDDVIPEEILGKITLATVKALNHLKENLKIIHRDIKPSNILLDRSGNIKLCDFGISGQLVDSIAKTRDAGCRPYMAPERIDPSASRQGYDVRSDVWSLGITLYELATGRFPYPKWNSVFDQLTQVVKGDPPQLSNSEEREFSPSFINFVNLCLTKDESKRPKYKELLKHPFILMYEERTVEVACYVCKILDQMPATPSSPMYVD
Description: as §1, with “(400” for “(64”, “25” for “40”, “10” for “20”, “0.02 mg/mL” for “10 μM of cGMP (Sigma), 100 μM”, “JNK1α1,” for “peptide,”
as §2

Compound	IC50 (Purified bovine PKGα)	Realative Inhibitory Activity PKG (Purified bovine PKGα)	IC50 [1]	Realative Inhibitory Activity AuroraA [1]	IC50 (Recombinant mouse MKK4)
2-(S)-1-(4-fluoroisoquinoline-5-sulfonyl)-4-glycyl-2-methylhomopiperazine dihydrochloride [Example 1]	63.5 µM	2117	84.5 µM	2817	> 100 µM
CNCC(=O)N1CCCN(S(=O)(=O)c2cccc3cncc(F)c23)[C@@H](C)C1.Cl.Cl [Example 2, 2-(S)-1-(4-fluoroisoquinoline-5-sulfonyl)-2-methyl-4-(N-methylglycyl)homopiperazine dihydrochloride]	28 µM	933	92.2 µM	>3000	> 100 µM
